Tests used:
Format in all cases: functional, cell-based
Raji = assay: Cytotoxicity against human Raji cells after 48 hrs by MTT assay
A549 = assay: Cytotoxicity against human A549 cells after 48 hrs by MTT assay; details: A549, 48 h
HeLa = assay: Cytotoxicity against human HeLa cells after 48 hrs by MTT assay
SGC-7901 = assay: Cytotoxicity against human SGC7901 cells after 48 hrs by MTT assay; details: SGC-7901, 48 h

Row | SMILES | IC50 (Raji) [µM] | IC50 (A549) [µM] | IC50 (HeLa) [µM] | IC50 (SGC-7901) [µM]
1 | CCOC(=O)[C@]1(C)CCC[C@@]2(C)[C@@H]3CC[C@@]4(C)C[C@]3(CC[C@@H]21)[C@@H]1CON(C(=S)Nc2ccc(F)cc2)[C@@H]14 | > 50 | > 50 | > 50 | > 50
2 | CCOC(=O)[C@]1(C)CCC[C@@]2(C)[C@@H]3CC[C@@]4(C)C[C@]3(CC[C@@H]21)c1cn(C(=S)Nc2cccc(OC)c2)nc14 | 15.1 | 23.3 | > 50 | 12.5
3 | CCOC(=O)[C@]1(C)CCC[C@@]2(C)[C@@H]3CC[C@@]4(C)C[C@]3(CC[C@@H]21)[C@@H]1CON(C(=S)Nc2ccccc2)[C@@H]14 | 32.5 | > 50 | > 50 | 27.6
4 | CCOC(=O)[C@]1(C)CCC[C@@]2(C)[C@@H]3CC[C@@]4(C)C[C@]3(CC[C@@H]21)c1cn(C(=S)Nc2ccc(C)cc2)nc14 | 12.5 | > 50 | 40.5 | 14.7

Source: ChEMBL document CHEMBL2331181, “Synthesis and in vitro cytotoxic activity evaluation of novel heterocycle bridged carbothioamide type isosteviol derivatives as antitumor agents” (Bioorg Med Chem Lett, 2013)
